Measured values as given in US20180110754A1, “CENICRIVIROC FOR THE TREATMENT OF FIBROSIS” (Tobira Therapeutics, Inc., priority 2015, published 2018).

Key:
[1] = Study 202: treatment-emergent laboratory abnormalities (DAIDS grades; CPK, ALT, AST, bilirubin); format: in vivo; details: All CVC (N = 115), EFV (N = 28)
From the text: The number of subjects with graded treatment-emergent laboratory abnormalities in selected liver parameters of interest is shown in Table 34. No Grade 4 ALT or AST elevations were observed. Except for one Grade 3 AST elevation, all ALT and AST elevations were Grade 1 or Grade 2. […] All abnormalities in bilirubin were Grade 1 or Grade 2. […]

[2] = system: MCP-1, sCD14, hs-CRP, IL-6, D-dimer, fibrinogen; assay: Study 202: biomarkers of inflammation and immune function; format: in vivo, human; details: EFV 600 mg
Description: As an exploratory analysis, levels of inflammation biomarkers MCP-1, sCD14, high sensitivity C-reactive protein [hs-CRP], interleukin-6 [IL-6], D-dimer, and fibrinogen) were measured. Baseline values and changes from baseline at Week 24 and Week 48 of MCP-1, sCD14, hs-CRP, IL-6, D-dimer, and fibrinogen are summarized in Table 25.
The sCD14 samples were originally analyzed in 2 separate batches: Batch 1 included samples leading up to the Week 24 primary analysis and Batch 2 included Week 32 and Week 48 (end of study) samples. A repeat analysis of archived samples all analyzed in one batch was conducted for consistency in analysis across time points. To control for the effects of covariates, a linear mixed-model repeated-measures analysis was conducted on the changes from baseline in sCD14 (analysis dated September 2013).

With `O=C1Nc2ccc(Cl)cc2[C@@](C#CC2CC2)(C(F)(F)F)O1` [EFV, efavirenz, reference compound] the “Any graded (Grade 1-4) treatment-emergent laboratory abnormality, n subjects” value [1] was 25, the “Laboratory abnormality, worst Grade 1, n subjects” value [1] was 13 and the “Laboratory abnormality, worst Grade 2, n subjects” value [1] was 8. For the same molecule, the “Laboratory abnormality, worst Grade 3 (Any Grade 3 abnormality), n subjects” value [1] was 3, the “Laboratory abnormality, worst Grade 4 (Any Grade 4 abnormality), n subjects” value [1] was 1 and the “ALT, worst Grade 1, n subjects” value ([1]; through Week 48) was 2. The “ALT, worst Grade 2, n subjects” value ([1]; through Week 48) was 0, the “ALT, worst Grade 3, n subjects” value ([1]; through Week 48) was 0 and the “ALT, worst Grade 4, n subjects” value ([1]; through Week 48) was 0. The “AST, worst Grade 1, n subjects” value ([1]; through Week 48) was 3, the “AST, worst Grade 2, n subjects” value ([1]; through Week 48) was 0 and the “AST, worst Grade 3, n subjects” value ([1]; through Week 48) was 0. The “AST, worst Grade 4, n subjects” value ([1]; through Week 48) was 0, the “Alanine aminotransferase (ALT) abnormality, any grade, n subjects” value ([1]; through Week 48) was 2 and the “Any Grade 3 or Grade 4 laboratory abnormality, n subjects” value ([1]; through Week 48) was 4. The “Aspartate aminotransferase (AST) abnormality, any grade, n subjects” value ([1]; through Week 48) was 3, the “Aspartate aminotransferase (AST) increased (Grade 3 or 4), n subjects” value ([1]; through Week 48) was 0 and the “Bilirubin abnormality, any grade, n subjects” value ([1]; through Week 48) was 1. The “Bilirubin, worst Grade 1, n subjects” value ([1]; through Week 48) was 1, the “Bilirubin, worst Grade 2, n subjects” value ([1]; through Week 48) was 0 and the “Bilirubin, worst Grade 3, n subjects” value ([1]; through Week 48) was 0. The “Bilirubin, worst Grade 4, n subjects” value ([1]; through Week 48) was 0, the “CPK increased, worst Grade 3, n subjects” value ([1]; through Week 48) was 2 and the “CPK increased, worst Grade 4, n subjects” value ([1]; through Week 48) was 0. For the same molecule, the “Creatine phosphokinase (CPK) increased (Grade 3 or 4), n subjects” value ([1]; through Week 48) was 2, the “Fibrinogen decreased (Grade 3 or 4), n subjects” value ([1]; through Week 48) was 0 and the “Fibrinogen decreased, worst Grade 3, n subjects” value ([1]; through Week 48) was 0. The “Fibrinogen decreased, worst Grade 4, n subjects” value ([1]; through Week 48) was 0, the “Hemoglobin decreased (Grade 3 or 4), n subjects” value ([1]; through Week 48) was 0 and the “Hemoglobin decreased, worst Grade 3, n subjects” value ([1]; through Week 48) was 0. The “Hemoglobin decreased, worst Grade 4, n subjects” value ([1]; through Week 48) was 0, the “Neutrophils decreased (Grade 3 or 4), n subjects” value ([1]; through Week 48) was 1 and the “Neutrophils decreased, worst Grade 3, n subjects” value ([1]; through Week 48) was 0. The “Neutrophils decreased, worst Grade 4, n subjects” value ([1]; through Week 48) was 1, the “Phosphate decreased (Grade 3 or 4), n subjects” value ([1]; through Week 48) was 1 and the “Phosphate decreased, worst Grade 3, n subjects” value ([1]; through Week 48) was 1. The “Phosphate decreased, worst Grade 4, n subjects” value ([1]; through Week 48) was 0, the “Prothrombin time/INR increased, worst Grade 3, n subjects” value ([1]; through Week 48) was 0 and the “Prothrombin time/INR increased, worst Grade 4, n subjects” value ([1]; through Week 48) was 0. For the same molecule, the “Prothrombin time/international normalized ratio increased (Grade 3 or 4), n subjects” value ([1]; through Week 48) was 0, the “D-dimer baseline value, mean” value [2] was 163 ng/mL and the “D-dimer baseline value, median” value [2] was 150 ng/mL. For the same molecule, the “D-dimer change from baseline at Week 24, mean” value [2] was -53 ng/mL, the “D-dimer change from baseline at Week 24, median” value [2] was -26 ng/mL and the “D-dimer change from baseline at Week 48, mean” value [2] was -34 ng/mL. The “D-dimer change from baseline at Week 48, median” value [2] was 0.0 ng/mL, the “Fibrinogen baseline value, mean” value [2] was 258 mg/dL and the “Fibrinogen baseline value, median” value [2] was 245 mg/dL. The “Fibrinogen change from baseline at Week 24, mean” value [2] was -28 mg/dL, the “Fibrinogen change from baseline at Week 24, median” value [2] was -31 mg/dL and the “Fibrinogen change from baseline at Week 48, mean” value [2] was -30 mg/dL. For the same molecule, the “Fibrinogen change from baseline at Week 48, median” value [2] was -22 mg/dL, the “IL-6 baseline value, mean” value [2] was 13.81 pg/mL and the “IL-6 baseline value, median” value [2] was 1.90 pg/mL. For the same molecule, the “IL-6 change from baseline at Week 24, mean” value [2] was -8.72 pg/mL, the “IL-6 change from baseline at Week 24, median” value [2] was 0.00 pg/mL and the “IL-6 change from baseline at Week 48, mean” value [2] was -13.11 pg/mL. The “IL-6 change from baseline at Week 48, median” value [2] was 0.00 pg/mL, the “MCP-1 baseline value, mean” value [2] was 139 pg/mL and the “MCP-1 baseline value, median” value [2] was 122 pg/mL. For the same molecule, the “MCP-1 change from baseline at Week 24, mean” value [2] was -44 pg/mL, the “MCP-1 change from baseline at Week 24, median” value [2] was -17 pg/mL and the “MCP-1 change from baseline at Week 48, mean” value [2] was 4.2 pg/mL. For the same molecule, the “MCP-1 change from baseline at Week 48, median” value [2] was 33.6 pg/mL, the “hs-CRP baseline value, mean” value [2] was 0.81 mg/dL and the “hs-CRP baseline value, median” value [2] was 0.14 mg/dL. For the same molecule, the “hs-CRP change from baseline at Week 24, mean” value [2] was -0.46 mg/dL, the “hs-CRP change from baseline at Week 24, median” value [2] was -0.01 mg/dL and the “hs-CRP change from baseline at Week 48, mean” value [2] was -0.71 mg/dL. The “hs-CRP change from baseline at Week 48, median” value [2] was -0.03 mg/dL, the “sCD14 (original values) baseline value, mean” value [2] was 2e+06 pg/mL and the “sCD14 (original values) baseline value, median” value [2] was 2.02e+06 pg/mL. The “sCD14 (original values) change from baseline at Week 12, mean” value [2] was 90000 pg/mL, the “sCD14 (original values) change from baseline at Week 12, median” value [2] was 180000 pg/mL and the “sCD14 (original values) change from baseline at Week 24, mean” value [2] was 230000 pg/mL. The “sCD14 (original values) change from baseline at Week 24, median” value [2] was 130000 pg/mL, the “sCD14 (original values) change from baseline at Week 32, mean” value [2] was 480000 pg/mL and the “sCD14 (original values) change from baseline at Week 32, median” value [2] was 170000 pg/mL. For the same molecule, the “sCD14 (original values) change from baseline at Week 48, mean” value [2] was 640000 pg/mL and the “sCD14 (original values) change from baseline at Week 48, median” value [2] was 460000 pg/mL.
